Laboratory results from US20240246934A1, “QUINAZOLINE-BASED COMPOUND, COMPOSITION, AND APPLICATION OF QUINAZOLINE-BASED COMPOUND” (BEIJING SCITECH-MQ PHARMACEUTICALS LIMITED, priority 2021, published 2024).

Tests used:
HER2 kinase = molecular target: T1, HER2 kinase (Homo sapiens, UniProt P04626); experiment: HER2 kinase assay (ULight/PT66 TR-FRET); format: biochemical
T1 construct: purchased Carna Biosciences 08-016
Summary of the method: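 HER2 kinase preincubated 5 min with compounds (11-point 3-fold series, duplicates), then reacted 120 min at room temperature with ATP and ULight-poly GT peptide, each prepared at 4× working concentration (40 μM ATP, 400 nM substrate, 40 nM kinase). PT66 antibody added for 60 min, TR-FRET read; IC50 from inhibition curves.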

EGFR^WT kinase = EGFR^WT kinase (Homo sapiens, UniProt P00533); experiment: EGFR^WT kinase assay (ULight/PT66 TR-FRET); format: biochemical
Summary of the method: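 Enzyme preincubated 5 min with compound (11-point 3-fold series, duplicate), then ULight-JAK-1 (Tyr1023) peptide and ATP added at 4× stocks of 400 nM and 600 μM; 120 min reaction at room temperature. PT66 antibody TR-FRET read after 60 min; IC50 fitted from inhibition rates.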

[1] = molecular target: Ba/F3 HER2 A775_G776insYVMA cells (Homo sapiens, UniProt P04626, DUP772-775, cells depend on it); experiment: Inhibition of cell proliferation, CTG method, Ba/F3 HER2 A775_G776insYVMA; format: cell-based; conditions: 72 hours, read-out: Ba/F3 HER2 A775-G776insYVMA IC50
Summary of the method: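 Ba/F3 HER2 A775_G776insYVMA cells in RPMI1640 with 10% FBS were plated at 3000 cells/well and treated directly with compound (top 10 μM, 4-fold, 9 concentrations, duplicates).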

[2] = molecular target: Ba/F3 EGFR D770_N771insSVD cells (Homo sapiens, UniProt P00533, DUP768-770, cells depend on it); experiment: Inhibition of cell proliferation, CTG method, Ba/F3 EGFR D770_N771insSVD; format: cell-based; conditions: 72 hours, read-out: Ba/F3 EGFR D770_N771insSVD IC50
From the text: The present application examined the in vitro anti-proliferative activity of the compounds of the present disclosure against in vitro cultured BT474, NCI-N87, Ba/F3-EGFR-VIII and Ba/F3 HER2 A775_G776insYVMA and Ba/F3 EGFR D770_N771insSVD cell lines by CTG method.
Reagents and consumables: RPMI1640 (ThermoFisher, Cat. No. C11875500BT); fetal bovine serum (Hyclone, Cat. No. SV30087.03); 0.25% trypsin-EDTA (ThermoFisher, Cat. No. 25200-072); penicillin-streptomycin (Hyclone, Cat. No. SV30010); DMSO (Amresco, Cat. No. 0231-500ML); CTG assay kit (Promega, Cat. No. G924C); 96-well plate (Corning, Cat. No. 3603); multifunctional plate reader (Perkin Elmer, Cat. No. Envision)
Cell lines: BT474 (from the cell bank of Chinese Academy of Sciences), NCI-N87 (from ATCC), Ba/F3-EGFR-VIII, Ba/F3 HER2 A775_G776insYVMA and Ba/F3 EGFR D770_N771insSVD (all from KYinno Biotechnology (Beijing) Co., Ltd.); all of the above cells were cultured with RPMI1640 medium containing 10% fetal bovine serum, 100 U/mL penicillin, and 100 μg/mL streptomycin in the culture process.
1. The assay compound was dissolved with DMSO to form a stock solution and a gradient dilution was performed, followed by dilution with the corresponding medium to obtain a solution with 5-fold working concentration.
2. Cells in logarithmic growth phase were adjusted to specific cell densities by dilution with culture medium, and 80 μL of cell suspension was added to a 96-well plate, such that plating densities of cells of BT474, NCI-N87, Ba/F3-EGFR-VIII, Ba/F3 HER2 A775_G776insYVMA and Ba/F3 EGFR D770_N771insSVD were all 3000 cells/well. The cells of Ba/F3-EGFR-VIII, Ba/F3 HER2 A775_G776insYVMA and Ba/F3 EGFR D770_N771insSVD were used directly in the next step (treatment with compound), whereas the BT474 and NCI-N87 needed to be cultured overnight in a 37° C., 5% carbon dioxide gas incubator to adhere to the wall, and then treated with compounds.
3. 20 μL of compound solution was added to each well of the 96-well plate that had been inoculated with cells. The highest concentration of the assayed compound was 10 μM, 4-fold serial dilution, a total of 9 concentrations, and duplicate wells. A control group without compound was also set up.
4. The cells were cultured for another 72 hours, and then cell viability was detected by CTG assay kit. Signal values were read with a multifunctional plate reader (Perkin Elmer). GraphPad Prism software was used to create a dose-response curve and IC50 was calculated.

Sequence of Ba/F3 HER2 A775_G776insYVMA cells (P04626 with tags, fused parts or gaps DUP772-775): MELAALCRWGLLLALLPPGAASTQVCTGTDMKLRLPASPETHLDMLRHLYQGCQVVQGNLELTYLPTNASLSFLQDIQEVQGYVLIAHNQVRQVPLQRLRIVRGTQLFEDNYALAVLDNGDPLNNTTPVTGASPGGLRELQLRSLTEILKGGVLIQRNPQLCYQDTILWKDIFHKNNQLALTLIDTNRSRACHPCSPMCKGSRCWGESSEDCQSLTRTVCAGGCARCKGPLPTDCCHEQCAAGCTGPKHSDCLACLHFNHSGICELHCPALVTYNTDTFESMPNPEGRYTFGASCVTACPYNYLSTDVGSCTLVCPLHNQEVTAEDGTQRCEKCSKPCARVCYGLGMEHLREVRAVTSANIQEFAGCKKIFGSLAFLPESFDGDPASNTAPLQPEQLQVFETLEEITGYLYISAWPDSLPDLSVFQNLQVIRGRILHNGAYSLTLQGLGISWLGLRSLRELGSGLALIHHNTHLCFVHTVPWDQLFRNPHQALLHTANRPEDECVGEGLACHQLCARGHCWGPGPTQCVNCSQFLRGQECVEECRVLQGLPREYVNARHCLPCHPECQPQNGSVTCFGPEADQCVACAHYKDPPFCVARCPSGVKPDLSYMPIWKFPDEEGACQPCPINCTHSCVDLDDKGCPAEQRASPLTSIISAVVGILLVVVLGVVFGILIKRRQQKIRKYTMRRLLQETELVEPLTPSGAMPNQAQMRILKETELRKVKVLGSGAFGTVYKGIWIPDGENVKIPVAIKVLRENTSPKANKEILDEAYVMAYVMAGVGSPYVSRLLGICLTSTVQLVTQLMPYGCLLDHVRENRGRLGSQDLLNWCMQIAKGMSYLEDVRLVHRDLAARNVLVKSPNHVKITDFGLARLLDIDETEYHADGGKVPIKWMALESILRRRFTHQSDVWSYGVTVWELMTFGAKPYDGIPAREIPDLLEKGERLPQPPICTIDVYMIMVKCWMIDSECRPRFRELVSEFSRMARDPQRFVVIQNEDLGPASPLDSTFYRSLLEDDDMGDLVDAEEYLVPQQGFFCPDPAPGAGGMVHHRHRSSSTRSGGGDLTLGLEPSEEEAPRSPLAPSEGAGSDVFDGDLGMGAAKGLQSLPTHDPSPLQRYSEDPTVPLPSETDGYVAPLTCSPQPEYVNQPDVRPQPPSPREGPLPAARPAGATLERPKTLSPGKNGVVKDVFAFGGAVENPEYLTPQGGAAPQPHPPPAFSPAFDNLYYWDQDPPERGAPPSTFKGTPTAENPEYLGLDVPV
T1 sequence (P04626 23-1255): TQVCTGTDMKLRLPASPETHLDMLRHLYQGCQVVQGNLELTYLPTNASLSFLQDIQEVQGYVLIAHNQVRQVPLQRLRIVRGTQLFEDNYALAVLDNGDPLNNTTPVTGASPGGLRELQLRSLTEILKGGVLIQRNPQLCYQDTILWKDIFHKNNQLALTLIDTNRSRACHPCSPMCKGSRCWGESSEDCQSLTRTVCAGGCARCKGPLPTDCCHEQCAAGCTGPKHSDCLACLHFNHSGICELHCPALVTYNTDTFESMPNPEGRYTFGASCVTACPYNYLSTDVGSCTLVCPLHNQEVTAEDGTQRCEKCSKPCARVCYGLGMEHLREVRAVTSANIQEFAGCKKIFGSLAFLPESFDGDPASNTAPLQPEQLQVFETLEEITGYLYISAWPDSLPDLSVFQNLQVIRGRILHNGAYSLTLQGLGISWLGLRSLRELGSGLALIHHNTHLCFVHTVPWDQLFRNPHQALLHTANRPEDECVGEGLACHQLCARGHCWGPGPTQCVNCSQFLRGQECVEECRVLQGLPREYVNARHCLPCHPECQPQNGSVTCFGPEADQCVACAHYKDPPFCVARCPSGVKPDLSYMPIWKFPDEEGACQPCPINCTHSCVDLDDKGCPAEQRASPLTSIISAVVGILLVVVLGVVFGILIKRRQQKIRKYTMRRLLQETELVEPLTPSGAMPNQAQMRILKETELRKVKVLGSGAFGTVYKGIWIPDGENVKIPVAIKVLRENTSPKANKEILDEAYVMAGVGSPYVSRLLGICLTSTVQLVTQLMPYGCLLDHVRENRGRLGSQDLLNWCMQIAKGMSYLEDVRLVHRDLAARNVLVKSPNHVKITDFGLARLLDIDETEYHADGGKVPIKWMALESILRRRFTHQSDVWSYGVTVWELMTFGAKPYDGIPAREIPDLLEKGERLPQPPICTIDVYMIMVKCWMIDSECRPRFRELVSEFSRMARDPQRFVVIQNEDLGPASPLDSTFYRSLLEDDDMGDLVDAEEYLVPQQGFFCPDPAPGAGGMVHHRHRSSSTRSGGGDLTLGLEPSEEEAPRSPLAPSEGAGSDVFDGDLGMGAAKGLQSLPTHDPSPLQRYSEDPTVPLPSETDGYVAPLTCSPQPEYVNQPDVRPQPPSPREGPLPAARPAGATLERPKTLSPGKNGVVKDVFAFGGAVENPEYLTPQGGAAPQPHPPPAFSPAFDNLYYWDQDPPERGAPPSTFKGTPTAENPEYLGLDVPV
Sequence of Ba/F3 EGFR D770_N771insSVD cells (P00533 with tags, fused parts or gaps DUP768-770): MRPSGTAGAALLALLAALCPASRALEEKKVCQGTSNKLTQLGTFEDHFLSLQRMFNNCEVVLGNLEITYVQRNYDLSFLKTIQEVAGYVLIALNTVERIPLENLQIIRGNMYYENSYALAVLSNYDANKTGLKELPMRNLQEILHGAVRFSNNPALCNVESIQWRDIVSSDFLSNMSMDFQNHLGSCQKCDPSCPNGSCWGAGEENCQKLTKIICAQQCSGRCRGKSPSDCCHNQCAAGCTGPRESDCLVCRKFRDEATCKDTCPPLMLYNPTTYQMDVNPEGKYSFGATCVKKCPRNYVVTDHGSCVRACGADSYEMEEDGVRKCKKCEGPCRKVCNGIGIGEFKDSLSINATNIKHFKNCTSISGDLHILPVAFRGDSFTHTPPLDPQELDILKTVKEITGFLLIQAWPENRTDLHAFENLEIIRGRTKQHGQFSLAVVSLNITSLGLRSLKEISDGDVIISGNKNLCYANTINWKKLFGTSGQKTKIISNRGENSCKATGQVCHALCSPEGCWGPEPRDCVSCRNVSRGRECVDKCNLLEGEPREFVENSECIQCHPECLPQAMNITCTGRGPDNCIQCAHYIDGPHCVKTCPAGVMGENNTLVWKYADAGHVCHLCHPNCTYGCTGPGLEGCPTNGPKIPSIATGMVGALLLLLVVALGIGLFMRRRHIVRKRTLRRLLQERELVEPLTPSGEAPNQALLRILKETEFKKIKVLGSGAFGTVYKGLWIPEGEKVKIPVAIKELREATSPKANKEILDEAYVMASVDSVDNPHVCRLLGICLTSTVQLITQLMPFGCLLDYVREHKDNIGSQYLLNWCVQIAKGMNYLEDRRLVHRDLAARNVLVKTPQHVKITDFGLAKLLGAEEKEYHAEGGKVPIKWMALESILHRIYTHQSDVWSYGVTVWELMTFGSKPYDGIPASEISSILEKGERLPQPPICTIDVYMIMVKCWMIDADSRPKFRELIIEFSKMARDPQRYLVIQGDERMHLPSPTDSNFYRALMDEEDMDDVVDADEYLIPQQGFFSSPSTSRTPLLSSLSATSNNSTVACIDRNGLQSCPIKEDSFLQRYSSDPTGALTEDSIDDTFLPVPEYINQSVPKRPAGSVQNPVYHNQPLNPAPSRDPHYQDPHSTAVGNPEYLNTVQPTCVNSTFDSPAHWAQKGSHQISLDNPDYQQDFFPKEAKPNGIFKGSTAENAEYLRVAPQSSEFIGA
Sequence of EGFR^WT kinase (P00533 25-1210): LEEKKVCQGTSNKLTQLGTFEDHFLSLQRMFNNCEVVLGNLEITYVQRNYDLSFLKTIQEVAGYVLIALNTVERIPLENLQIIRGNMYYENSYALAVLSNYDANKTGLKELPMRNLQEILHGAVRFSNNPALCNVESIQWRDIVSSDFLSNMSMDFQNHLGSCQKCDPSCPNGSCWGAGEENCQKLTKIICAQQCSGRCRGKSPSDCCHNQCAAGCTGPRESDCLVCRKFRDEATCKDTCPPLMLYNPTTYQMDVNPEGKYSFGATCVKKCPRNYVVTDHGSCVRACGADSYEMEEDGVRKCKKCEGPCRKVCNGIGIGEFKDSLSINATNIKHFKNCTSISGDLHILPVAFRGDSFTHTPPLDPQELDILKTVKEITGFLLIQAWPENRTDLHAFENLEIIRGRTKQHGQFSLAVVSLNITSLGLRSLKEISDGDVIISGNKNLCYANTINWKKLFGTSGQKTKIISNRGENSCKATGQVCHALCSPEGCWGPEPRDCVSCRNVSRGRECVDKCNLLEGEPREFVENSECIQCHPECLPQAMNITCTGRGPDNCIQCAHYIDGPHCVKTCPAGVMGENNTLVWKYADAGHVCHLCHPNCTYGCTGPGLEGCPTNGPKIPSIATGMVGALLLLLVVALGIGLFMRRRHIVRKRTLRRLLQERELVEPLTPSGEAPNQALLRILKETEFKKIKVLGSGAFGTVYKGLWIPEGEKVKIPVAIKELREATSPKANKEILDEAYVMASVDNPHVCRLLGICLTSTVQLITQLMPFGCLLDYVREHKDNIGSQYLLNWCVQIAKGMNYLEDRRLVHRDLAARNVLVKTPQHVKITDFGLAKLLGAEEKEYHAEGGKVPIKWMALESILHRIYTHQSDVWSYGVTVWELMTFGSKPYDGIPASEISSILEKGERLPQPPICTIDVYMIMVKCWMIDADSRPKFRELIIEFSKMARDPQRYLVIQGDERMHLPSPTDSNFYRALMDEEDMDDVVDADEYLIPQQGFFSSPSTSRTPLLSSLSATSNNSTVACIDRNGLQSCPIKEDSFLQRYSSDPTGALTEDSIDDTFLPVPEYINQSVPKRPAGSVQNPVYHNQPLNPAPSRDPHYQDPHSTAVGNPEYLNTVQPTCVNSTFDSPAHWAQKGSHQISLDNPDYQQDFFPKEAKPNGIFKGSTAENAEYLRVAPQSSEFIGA

IC50 (HER2 kinase) [nM] | IC50 (EGFR^WT kinase) [nM] | GI50 [1] [nM] | GI50 [2] [nM] | SMILES
< 10 | < 10 | 1 to 5 | 5 to 10 | CN1CCC[C@@H]1/C=C/C(=O)Nc1ccc2ncnc(Nc3ccc(OCc4ccccn4)c(Cl)c3)c2c1OCCO [Example 6, (R,E)-N-(4-((3-chloro-4-(pyridin-2-ylmethoxy)phenyl)amino)-5-(2-hydroxyethoxy)quinazolin-6-yl)-3-(1-methylpyrrolidin-2-yl)acrylamide]
< 10 | < 10 | 1 to 5 | 10 to 100 | CN1CCC[C@@H]1/C=C/C(=O)Nc1ccc2ncnc(Nc3ccc(OCc4ccccn4)c(Cl)c3)c2c1OCCCF [Example 10, (R,E)-N-(4-((3-chloro-4-(pyridin-2-ylmethoxy)phenyl)amino)-5-(3-fluoropropoxy)quinazolin-6-yl)-3-(1-methylpyrrolidin-2-yl)acrylamide]
< 10 | < 10 | 1 to 5 | 10 to 100 | CN1CCC[C@@H]1/C=C/C(=O)Nc1ccc2ncnc(Nc3ccc(OCc4ccccn4)c(Cl)c3)c2c1OCC(C)(C)O [Example 15, (R,E)-N-(4-((3-chloro-4-(pyridin-2-ylmethoxy)phenyl)amino)-5-(2-hydroxy-2-methylpropoxy)quinazolin-6-yl)-3-(1-methylpyrrolidin-2-yl)acrylamide]
